In ChEMBL document CHEMBL1152687, “Synthesis and biological evaluation of the metabolites of 2-(1-{3-[(6-chloronaphthalen-2-yl)sulfonyl]propanoyl}piperidin-4-yl)-5-methyl-1,2-dihydro-3H-imidazo[1,5-c]imidazol-3-one” (Bioorg Med Chem, 2009):

Assays:
[1] = Plasma concentration in cynomolgus monkey at 1 mg/kg, po after 10 hrs; assay type: ADME, organism-based, Macaca fascicularis; design: dose 1 mg/kg, route oral
[2] = Plasma concentration in cynomolgus monkey at 1 mg/kg, po after 4 hrs; assay type: ADME, organism-based, Macaca fascicularis; design: dose 1 mg/kg, route oral
[3] = Plasma concentration in cynomolgus monkey at 1 mg/kg, po after 2 hrs; assay type: ADME, organism-based, Macaca fascicularis; design: dose 1 mg/kg, route oral
[4] = AUC (0 to 10 hrs) in cynomolgus monkey at 1 mg/kg, po; assay type: ADME, organism-based, Macaca fascicularis; design: time < 10 hr, dose 1 mg/kg, route oral; conditions: plasma
[5] = Plasma concentration in cynomolgus monkey at 1 mg/kg, po after 1 hr; assay type: ADME, organism-based, Macaca fascicularis; design: dose 1 mg/kg, route oral
[6] = AUC in cynomolgus monkey at 1 mg/kg, po; assay type: ADME, organism-based, Macaca fascicularis; design: dose 1 mg/kg, route oral; conditions: plasma
Plasminogen = Plasminogen (Homo sapiens, UniProt P00747); experiment: Inhibition of human plasmin by para-nitroanilide release assay
Sequence of Plasminogen (P00747 97-580 limits assumed): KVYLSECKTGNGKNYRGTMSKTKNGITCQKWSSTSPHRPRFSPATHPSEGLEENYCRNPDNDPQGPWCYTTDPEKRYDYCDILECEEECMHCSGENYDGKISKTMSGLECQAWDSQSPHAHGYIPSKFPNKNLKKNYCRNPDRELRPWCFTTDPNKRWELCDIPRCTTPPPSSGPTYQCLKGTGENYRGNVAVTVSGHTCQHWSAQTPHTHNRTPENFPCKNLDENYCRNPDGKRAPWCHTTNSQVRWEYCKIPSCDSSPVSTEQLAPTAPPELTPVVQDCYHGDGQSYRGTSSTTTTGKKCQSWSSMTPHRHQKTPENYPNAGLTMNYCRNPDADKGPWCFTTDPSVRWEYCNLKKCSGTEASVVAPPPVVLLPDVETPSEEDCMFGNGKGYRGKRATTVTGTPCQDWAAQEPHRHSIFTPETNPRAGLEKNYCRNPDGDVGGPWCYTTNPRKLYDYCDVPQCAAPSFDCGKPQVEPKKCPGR
Sequence of Plasminogen (P00747 581-810 limits assumed): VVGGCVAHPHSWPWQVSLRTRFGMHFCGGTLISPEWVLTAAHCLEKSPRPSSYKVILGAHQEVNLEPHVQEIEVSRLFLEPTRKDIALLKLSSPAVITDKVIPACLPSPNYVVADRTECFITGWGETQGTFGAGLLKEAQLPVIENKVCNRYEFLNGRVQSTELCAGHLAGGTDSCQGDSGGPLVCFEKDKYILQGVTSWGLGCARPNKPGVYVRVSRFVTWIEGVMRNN

[7] = target: Tissue-type plasminogen activator (Homo sapiens, UniProt P00750); experiment: Inhibition of human tissue plasminogen activator by para-nitroanilide release assay
Sequence of Tissue-type plasminogen activator (P00750 whole entry): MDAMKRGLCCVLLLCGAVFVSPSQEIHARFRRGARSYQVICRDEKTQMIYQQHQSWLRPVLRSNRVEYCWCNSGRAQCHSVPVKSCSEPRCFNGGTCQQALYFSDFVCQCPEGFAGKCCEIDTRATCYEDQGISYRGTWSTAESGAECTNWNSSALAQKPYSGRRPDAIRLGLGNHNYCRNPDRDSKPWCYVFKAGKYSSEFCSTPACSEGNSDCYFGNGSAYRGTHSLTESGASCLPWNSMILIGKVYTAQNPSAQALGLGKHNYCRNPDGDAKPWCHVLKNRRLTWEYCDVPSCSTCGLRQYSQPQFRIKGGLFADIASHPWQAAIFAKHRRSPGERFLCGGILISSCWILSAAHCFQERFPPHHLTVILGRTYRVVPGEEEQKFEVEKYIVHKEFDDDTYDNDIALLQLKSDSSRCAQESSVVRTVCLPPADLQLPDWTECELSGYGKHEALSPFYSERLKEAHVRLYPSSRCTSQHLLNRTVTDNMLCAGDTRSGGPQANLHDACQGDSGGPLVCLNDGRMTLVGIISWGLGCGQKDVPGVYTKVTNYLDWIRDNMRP

[8] = Total clearance in cynomolgus monkey at 0.1 mg/kg, iv; assay type: ADME, organism-based, Macaca fascicularis; design: dose 0.1 mg/kg, route intravenous; conditions: in vivo
[9] = Oral bioavailability in cynomolgus monkey at 1 mg/kg, po; assay type: ADME, organism-based, Macaca fascicularis; conditions: in vivo
Prothrombin = Prothrombin (Homo sapiens, UniProt P00734); experiment: Inhibition of human thrombin by para-nitroanilide release assay
[10] = Cmax in cynomolgus monkey at 1 mg/kg, po; assay type: ADME, organism-based, Macaca fascicularis; design: dose 1 mg/kg, route oral; conditions: in vivo
Trypsin = Trypsin (Homo sapiens, UniProt P07477+P07478+P35030); experiment: Inhibition of human trypsin by para-nitroanilide release assay; assay type: protein assay
[11] = Volume of distribution at steady state in cynomolgus monkey at 0.1 mg/kg, iv; assay type: ADME, organism-based, Macaca fascicularis; design: dose 0.1 mg/kg, route intravenous; conditions: in vivo, read-out: Vdss
[12] = Mean residence time in cynomolgus monkey at 1 mg/kg, po; assay type: ADME, organism-based, Macaca fascicularis; design: dose 1 mg/kg, route oral; conditions: in vivo
Coagulation factor X = Coagulation factor X (Homo sapiens, UniProt P00742); experiment: Inhibition of human factor 10a by para-nitroanilide release assay
Sequence of Coagulation factor X (P00742 41-179 limits assumed): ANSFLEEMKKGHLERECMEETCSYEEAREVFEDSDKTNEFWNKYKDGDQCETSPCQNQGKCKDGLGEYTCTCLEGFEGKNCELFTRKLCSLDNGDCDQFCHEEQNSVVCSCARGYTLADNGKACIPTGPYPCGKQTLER
Sequence of Coagulation factor X (P00742 235-488 limits assumed): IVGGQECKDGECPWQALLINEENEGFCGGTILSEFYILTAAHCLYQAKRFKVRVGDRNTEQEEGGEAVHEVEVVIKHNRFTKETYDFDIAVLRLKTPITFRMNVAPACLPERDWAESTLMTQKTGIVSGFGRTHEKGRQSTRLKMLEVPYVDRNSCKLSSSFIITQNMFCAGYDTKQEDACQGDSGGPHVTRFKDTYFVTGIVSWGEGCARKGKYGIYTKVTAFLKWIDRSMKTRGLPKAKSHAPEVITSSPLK

`Cc1ncc2n1C(=O)N(C1CCN(C(=O)[C@@H](O)CS(=O)(=O)c3ccc4cc(Cl)ccc4c3)CC1)C2` gave a concentration at 10 h [1] of 3.6 ng/mL, a concentration at 4 h [2] of 91 ng/mL and a concentration at 2 h [3] of 4.4 ng/mL. The AUC(0-t) at 10 h [4] was 54.6 ng·h/mL and the concentration at 1 h [5] was 0.8 ng/mL.

With `Cc1ncc2n1C(=O)N(C1CCN(C(=O)[C@H](O)CS(=O)(=O)c3ccc4cc(Cl)ccc4c3)CC1)C2` the AUC [6] was 307 ng·h/mL, the Ki (Plasminogen) was greater than 60 µM and the concentration at 10 h [1] was 1.8 ng/mL. For the same compound, the Ki [7] was greater than 60 µM, the concentration at 4 h [2] was 6.5 ng/mL and the clearance [8] was 14.2 mL/min/kg. For the same compound, the bioavailability [9] was 25.4%, the concentration at 2 h [3] was 6.8 ng/mL and the Ki (Prothrombin) was 1.9 µM. For the same compound, the Cmax [10] was 30.5 ng/mL, the AUC(0-t) at 10 h [4] was 44.2 ng·h/mL and the concentration at 1 h [5] was 2.7 ng/mL. It also gave a Ki (Trypsin) greater than 60 µM, a Vd [11] of 0.719 L/kg and an MRT [12] of 7.05 h.

Compound `NC1CCN(C(=O)CCS(=O)(=O)c2ccc3cc(Cl)ccc3c2)CC1` has an IC50 (Coagulation factor X) greater than 5 µM.

`Cc1ncc2n1C(=O)N(C1CCN(C(=O)CCS(=O)(=O)c3ccc4cc(Cl)ccc4c3)CC1)C2` showed a concentration at 10 h [1] of 9.9 ng/mL, a concentration at 4 h [2] of 65.9 ng/mL and a concentration at 2 h [3] of 132 ng/mL. The AUC(0-t) at 10 h [4] was 583 ng·h/mL and the concentration at 1 h [5] was 92.8 ng/mL.

In the case of `O=C(CCS(=O)(=O)c1ccc2cc(Cl)ccc2c1)N1CCC(N2Cc3cnc(CO)n3C2=O)CC1`, the AUC [6] is reported as 470 ng·h/mL, the Ki (Plasminogen) is reported as greater than 60 µM and the Ki [7] is reported as greater than 60 µM. It also gave a concentration at 4 h [2] of 13.3 ng/mL, a clearance [8] of 11.9 mL/min/kg and a bioavailability [9] of 32.3%. The concentration at 2 h [3] was 25 ng/mL, the Ki (Prothrombin) was 7.8 µM and the Cmax [10] was 60.1 ng/mL. It also gave an AUC(0-t) at 10 h [4] of 107 ng·h/mL, a concentration at 1 h [5] of 16.6 ng/mL and a Ki (Trypsin) greater than 60 µM. The Vd [11] was 0.588 L/kg and the MRT [12] was 7.56 h.

For `O=S(O)c1ccc2cc(Cl)ccc2c1`, the IC50 (Coagulation factor X) was greater than 5 µM.

With `O=C(O)CCS(=O)(=O)c1ccc2cc(Cl)ccc2c1` the IC50 (Coagulation factor X) was greater than 5 µM.

With `Cc1ncc2n1C(=O)N(C1CCN(C(=O)C(=O)CS(=O)(=O)c3ccc4cc(Cl)ccc4c3)CC1)C2` the IC50 (Coagulation factor X) was 0.93 µM.
